Ki and Papp data for 12 compounds are collected here from ChEMBL document CHEMBL4028887, “Improvement of Cell Permeability of Human Neuronal Nitric Oxide Synthase Inhibitors Using Potent and Selective 2-Aminopyridine-Based Scaffolds with a Fluorobenzene Linker” (J Med Chem, 2017).

Series [1] deals with Nitric oxide synthase 1 (Rattus norvegicus, UniProt P29476).
Series [2] has as its target T1, Nitric oxide synthase 3 (Homo sapiens, UniProt P29474).
T1 sequence (P29474 whole entry): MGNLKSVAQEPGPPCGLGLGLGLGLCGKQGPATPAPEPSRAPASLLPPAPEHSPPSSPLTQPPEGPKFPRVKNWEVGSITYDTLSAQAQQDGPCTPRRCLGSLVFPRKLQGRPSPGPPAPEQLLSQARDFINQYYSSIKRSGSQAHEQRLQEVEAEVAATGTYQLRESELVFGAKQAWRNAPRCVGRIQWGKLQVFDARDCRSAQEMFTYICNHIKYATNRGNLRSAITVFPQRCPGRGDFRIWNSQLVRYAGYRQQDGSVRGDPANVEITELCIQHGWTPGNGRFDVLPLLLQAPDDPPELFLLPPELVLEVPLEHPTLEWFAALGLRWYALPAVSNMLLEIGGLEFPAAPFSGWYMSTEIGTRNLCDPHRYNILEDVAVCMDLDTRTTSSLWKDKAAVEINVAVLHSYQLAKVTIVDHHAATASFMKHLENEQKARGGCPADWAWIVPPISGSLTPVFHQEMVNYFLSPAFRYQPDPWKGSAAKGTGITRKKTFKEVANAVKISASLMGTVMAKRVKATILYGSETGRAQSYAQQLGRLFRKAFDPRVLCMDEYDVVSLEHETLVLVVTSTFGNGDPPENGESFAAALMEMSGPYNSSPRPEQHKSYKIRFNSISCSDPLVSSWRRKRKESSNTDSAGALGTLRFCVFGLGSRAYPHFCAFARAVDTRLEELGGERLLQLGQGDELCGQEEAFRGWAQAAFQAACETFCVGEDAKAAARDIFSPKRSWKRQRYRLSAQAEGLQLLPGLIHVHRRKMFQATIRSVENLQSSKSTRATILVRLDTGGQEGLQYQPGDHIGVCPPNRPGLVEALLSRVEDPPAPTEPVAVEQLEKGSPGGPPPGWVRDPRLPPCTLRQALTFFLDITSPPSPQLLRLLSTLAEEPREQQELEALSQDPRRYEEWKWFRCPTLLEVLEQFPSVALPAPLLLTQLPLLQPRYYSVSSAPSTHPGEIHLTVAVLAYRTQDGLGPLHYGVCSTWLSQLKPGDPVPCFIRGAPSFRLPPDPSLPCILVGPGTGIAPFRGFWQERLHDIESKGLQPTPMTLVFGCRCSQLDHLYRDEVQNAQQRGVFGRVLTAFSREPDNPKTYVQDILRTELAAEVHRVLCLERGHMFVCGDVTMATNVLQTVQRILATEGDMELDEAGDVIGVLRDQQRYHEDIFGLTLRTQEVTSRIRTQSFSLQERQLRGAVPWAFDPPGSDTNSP
Format: ADME.

Series [3] addresses T2, Nitric oxide synthase, inducible (Mus musculus, UniProt P29477).
T2 sequence (P29477 whole entry): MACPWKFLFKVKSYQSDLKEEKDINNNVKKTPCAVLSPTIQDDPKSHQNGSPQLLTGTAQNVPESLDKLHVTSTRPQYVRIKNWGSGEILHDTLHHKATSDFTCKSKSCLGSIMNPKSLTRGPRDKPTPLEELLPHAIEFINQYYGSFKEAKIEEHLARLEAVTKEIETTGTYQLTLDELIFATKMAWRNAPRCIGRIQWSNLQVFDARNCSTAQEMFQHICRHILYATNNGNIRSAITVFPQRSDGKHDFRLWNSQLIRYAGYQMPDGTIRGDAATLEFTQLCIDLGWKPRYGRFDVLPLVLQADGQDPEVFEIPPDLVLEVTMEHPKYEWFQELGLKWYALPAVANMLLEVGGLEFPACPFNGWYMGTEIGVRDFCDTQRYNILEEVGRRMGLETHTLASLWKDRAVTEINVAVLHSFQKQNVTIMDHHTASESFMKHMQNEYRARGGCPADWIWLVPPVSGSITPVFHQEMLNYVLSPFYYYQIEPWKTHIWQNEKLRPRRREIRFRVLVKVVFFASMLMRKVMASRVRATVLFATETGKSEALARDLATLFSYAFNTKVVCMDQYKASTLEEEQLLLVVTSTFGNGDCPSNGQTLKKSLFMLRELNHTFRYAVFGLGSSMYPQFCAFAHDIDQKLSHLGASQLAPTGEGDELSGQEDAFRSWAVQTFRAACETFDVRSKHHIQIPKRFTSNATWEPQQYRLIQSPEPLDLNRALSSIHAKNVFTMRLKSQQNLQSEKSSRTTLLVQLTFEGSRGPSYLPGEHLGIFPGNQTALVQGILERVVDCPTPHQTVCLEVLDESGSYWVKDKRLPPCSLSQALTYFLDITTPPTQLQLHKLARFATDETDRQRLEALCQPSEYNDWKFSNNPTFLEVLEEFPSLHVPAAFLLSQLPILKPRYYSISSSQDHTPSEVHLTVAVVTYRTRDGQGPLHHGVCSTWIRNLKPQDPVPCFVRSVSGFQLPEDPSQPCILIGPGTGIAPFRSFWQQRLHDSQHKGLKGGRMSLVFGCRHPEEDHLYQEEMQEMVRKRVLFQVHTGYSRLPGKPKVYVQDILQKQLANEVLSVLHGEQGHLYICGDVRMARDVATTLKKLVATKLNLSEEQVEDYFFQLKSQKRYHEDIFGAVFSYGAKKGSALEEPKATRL

The target in series [4] is Nitric oxide synthase 1 (Homo sapiens, UniProt P29475). Put plainly: Inhibition of human neuronal NOS expressed in Escherichia coli using L-arginine as substrate assessed as reduction in NO production by measuring oxidation of oxyHb to metHb measured for 6 mins by hemoglobin- NO capture assay.
Chain of Nitric oxide synthase 1 (Homo sapiens, UniProt P29475) (P29475 whole entry, the tested form may be a part): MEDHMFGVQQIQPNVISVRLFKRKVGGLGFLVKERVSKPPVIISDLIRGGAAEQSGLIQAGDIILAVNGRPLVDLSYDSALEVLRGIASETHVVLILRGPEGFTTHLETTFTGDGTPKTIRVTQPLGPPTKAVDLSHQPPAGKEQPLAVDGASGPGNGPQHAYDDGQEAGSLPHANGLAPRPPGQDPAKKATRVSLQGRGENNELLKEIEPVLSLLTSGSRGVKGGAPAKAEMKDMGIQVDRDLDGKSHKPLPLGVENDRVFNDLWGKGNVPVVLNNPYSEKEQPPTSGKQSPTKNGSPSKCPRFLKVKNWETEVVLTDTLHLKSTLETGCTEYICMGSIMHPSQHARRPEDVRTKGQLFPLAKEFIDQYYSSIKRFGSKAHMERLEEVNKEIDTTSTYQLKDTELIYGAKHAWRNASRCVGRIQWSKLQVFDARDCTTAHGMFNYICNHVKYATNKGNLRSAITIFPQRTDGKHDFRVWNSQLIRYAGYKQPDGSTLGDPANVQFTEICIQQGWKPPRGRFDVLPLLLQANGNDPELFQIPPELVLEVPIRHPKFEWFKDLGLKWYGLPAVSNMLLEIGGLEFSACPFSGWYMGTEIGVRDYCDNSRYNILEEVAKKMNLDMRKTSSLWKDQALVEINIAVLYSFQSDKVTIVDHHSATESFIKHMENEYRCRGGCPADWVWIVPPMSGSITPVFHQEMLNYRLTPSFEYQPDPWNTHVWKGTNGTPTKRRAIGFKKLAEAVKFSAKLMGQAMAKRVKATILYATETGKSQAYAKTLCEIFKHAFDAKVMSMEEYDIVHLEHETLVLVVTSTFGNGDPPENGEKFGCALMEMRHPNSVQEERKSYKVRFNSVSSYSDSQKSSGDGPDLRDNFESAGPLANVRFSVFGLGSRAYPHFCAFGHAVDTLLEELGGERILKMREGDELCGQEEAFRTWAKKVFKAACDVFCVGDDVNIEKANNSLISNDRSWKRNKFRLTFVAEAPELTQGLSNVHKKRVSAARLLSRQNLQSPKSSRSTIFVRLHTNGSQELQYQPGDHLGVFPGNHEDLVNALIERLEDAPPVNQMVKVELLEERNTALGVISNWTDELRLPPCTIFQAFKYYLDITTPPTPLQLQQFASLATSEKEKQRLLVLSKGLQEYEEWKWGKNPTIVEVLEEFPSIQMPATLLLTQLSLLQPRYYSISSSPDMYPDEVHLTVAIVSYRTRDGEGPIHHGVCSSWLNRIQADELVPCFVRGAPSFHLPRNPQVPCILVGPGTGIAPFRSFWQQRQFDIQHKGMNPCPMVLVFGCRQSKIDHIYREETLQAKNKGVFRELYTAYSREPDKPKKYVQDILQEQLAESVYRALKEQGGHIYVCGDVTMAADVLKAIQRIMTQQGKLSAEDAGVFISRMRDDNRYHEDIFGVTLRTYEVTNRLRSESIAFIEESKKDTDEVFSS
Series [5] in a line: physchem. The note with it: PAMPA. In general terms: The PAMPA barrier holds no transporters, so it reflects passive diffusion.
Description: Effective permeability of compound at 200 uM after 17 hrs by PAMPA-BBB assay

Chain of Nitric oxide synthase 1 (Rattus norvegicus, UniProt P29476) (P29476 whole entry): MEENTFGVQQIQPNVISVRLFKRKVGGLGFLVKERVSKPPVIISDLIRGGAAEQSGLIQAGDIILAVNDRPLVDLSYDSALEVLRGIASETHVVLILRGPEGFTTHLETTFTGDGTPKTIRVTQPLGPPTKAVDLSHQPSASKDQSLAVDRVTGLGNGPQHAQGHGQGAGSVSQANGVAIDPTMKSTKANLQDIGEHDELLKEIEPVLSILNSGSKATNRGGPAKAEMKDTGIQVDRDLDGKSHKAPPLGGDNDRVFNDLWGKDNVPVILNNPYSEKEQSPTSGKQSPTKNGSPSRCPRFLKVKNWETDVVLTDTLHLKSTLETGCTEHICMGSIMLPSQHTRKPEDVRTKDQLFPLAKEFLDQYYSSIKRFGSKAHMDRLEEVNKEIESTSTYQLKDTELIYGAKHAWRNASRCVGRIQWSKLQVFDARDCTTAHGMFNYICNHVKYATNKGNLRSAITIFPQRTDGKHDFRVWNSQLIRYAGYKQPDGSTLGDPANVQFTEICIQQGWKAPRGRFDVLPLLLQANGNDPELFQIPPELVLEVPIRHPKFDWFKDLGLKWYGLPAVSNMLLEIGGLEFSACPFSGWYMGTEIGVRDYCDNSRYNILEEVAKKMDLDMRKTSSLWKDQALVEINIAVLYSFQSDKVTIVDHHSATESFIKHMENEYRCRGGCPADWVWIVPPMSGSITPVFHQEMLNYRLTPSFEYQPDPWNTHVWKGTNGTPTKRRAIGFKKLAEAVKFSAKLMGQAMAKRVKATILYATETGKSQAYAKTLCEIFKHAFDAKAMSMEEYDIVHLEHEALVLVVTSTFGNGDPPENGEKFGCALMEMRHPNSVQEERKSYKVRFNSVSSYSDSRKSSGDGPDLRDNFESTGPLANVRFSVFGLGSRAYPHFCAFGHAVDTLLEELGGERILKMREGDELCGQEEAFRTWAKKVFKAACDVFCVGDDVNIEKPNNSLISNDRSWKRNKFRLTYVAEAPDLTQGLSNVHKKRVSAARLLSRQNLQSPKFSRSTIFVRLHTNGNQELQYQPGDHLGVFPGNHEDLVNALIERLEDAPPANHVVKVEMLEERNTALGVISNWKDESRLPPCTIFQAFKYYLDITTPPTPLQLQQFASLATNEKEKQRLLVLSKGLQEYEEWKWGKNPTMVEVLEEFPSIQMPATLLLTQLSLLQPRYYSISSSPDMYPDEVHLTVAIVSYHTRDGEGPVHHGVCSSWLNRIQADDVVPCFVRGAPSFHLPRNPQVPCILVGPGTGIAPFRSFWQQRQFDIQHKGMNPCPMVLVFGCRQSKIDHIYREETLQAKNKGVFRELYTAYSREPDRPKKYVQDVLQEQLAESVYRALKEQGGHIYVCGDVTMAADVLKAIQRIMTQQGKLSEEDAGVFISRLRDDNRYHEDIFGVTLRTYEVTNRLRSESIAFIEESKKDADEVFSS

With `CNCc1ccc(-c2cc(F)cc(CCc3cc(C)cc(N)n3)c2)cc1`, the Ki is 0.185 µM in series [1], 69.9 µM in series [2], 10.9 µM in series [3] and 0.362 µM in series [4].

As for `CNCc1cccc(-c2cc(F)cc(CCc3cc(C)cc(N)n3)c2)c1`, the Papp at 17 h, 200 µM in series [5] came to 17.4 ×10⁻⁶ cm/s. Moreover, the inhibition constant (Ki) was 0.044 µM in series [1], 19.4 µM in series [2], 3.01 µM in series [3] and 0.083 µM in series [4].

`CNCCCc1cc(CCc2cc(C)cc(N)n2)cc(C(F)(F)F)c1`: the Ki in series [1] came out at 0.346 µM; in series [2], 51.5 µM; in series [3], 33.7 µM; in series [4] it was 0.598 µM.

Compound `CNCc1cccc(-c2cncc(CCc3cc(C)cc(N)n3)c2)c1` displayed a Papp at 17 h, 200 µM in series [5] of 5.56 ×10⁻⁶ cm/s. Besides, the Ki in series [1] was 0.047 µM; in series [2], 8.67 µM; in series [3], 3.01 µM; in series [4], 0.082 µM.

Take `Cc1cc(N)nc(CCc2cccc(CCCN(C)C)c2)c1`: the Ki in series [1] came to 0.06 µM; in series [2], 20.8 µM; in series [3] it was 3.46 µM; in series [4], 0.043 µM.

Take `CNCCCc1cc(F)cc(CCc2cc(C)cc(N)n2)c1`: the Ki in series [1] came out at 0.041 µM; in series [2], 39.5 µM; in series [3], 4.65 µM; in series [4], 0.065 µM.

`CNCc1ccc(-c2cncc(CCc3cc(C)cc(N)n3)c2)cc1`: the values for the Ki in series [1], in series [3] and in series [4] were 0.057 µM, 4.21 µM and 0.1 µM, respectively.

`Cc1cc(N)nc(CCc2cc(CCCN(C)C)cc(C(F)(F)F)c2)c1`: the Ki turned out to be 0.541 µM in series [1] and 36 µM in series [3].

On to `CNCCCc1cc(C#N)cc(CCc2cc(C)cc(N)n2)c1`, for which the Ki in series [1] amounted to 0.252 µM; in series [2], 42.1 µM; in series [3], 16.2 µM; in series [4] it was 0.516 µM.

Turning to `CNc1cccc(-c2cncc(CCc3cc(C)cc(N)n3)c2)c1`, the Ki in series [1] amounted to 1.7 µM; in series [3], 6.7 µM.

`Cc1cc(N)nc(CCc2cc(C#N)cc(CCCN(C)C)c2)c1`: the Ki in series [1] is 0.232 µM; in series [3] it was 16.4 µM.

As to `CNCCCc1cccc(CCc2cc(C)cc(N)n2)c1`, in series [5], the Papp at 17 h, 200 µM worked out at 10.4 ×10⁻⁶ cm/s. Also, the Ki came to 0.048 µM in series [1], 20.1 µM in series [2], 3.61 µM in series [3] and 0.055 µM in series [4].

What is called Ki is the equilibrium dissociation constant of an inhibitor or competing ligand from its target. As usually defined, the Papp is a coefficient for how fast a substance crosses the barrier. Low values mean poor permeation, high ones ready permeation.
